Assay results as given in US20080031903A1, “METHOD OF TREATING OCULAR INFECTIONS” (priority 2006, published 2008).
Values joined by “and” are separate entries in the source; they are usually repeats but may differ in a detail not shown here. Equal values may be shown once. “Also recorded” adds a separate entry of the source.

Experiments:
Ad5 [1] = test: Ad5/NZW rabbit ocular model, Example 5 (IG-Ad-R3); type: in vivo
Protocol: Additional experiments were conducted substantially as described in Example 3, in order to determine the antiviral efficacy of a 100 mg/ml solution of IG (intravenous Immune Globulin) in the Ad5/NZW rabbit ocular model.

Ad5 [2] = test: Ad5/NZW rabbit ocular model, combined analysis of Examples 3 and 5; type: in vivo; settings: n=20 eyes per group, FIG. 12
[3] = Days 1-5, Early Phase of Infection
[4] = Days 7-14, Late Phase of Infection

Compound: Nc1ccn(C[C@@H](CO)OCP(=O)(O)O)c(=O)n1 [0.5% Cidofovir, Cidofovir]
- Ad5 ocular viral titer, individual eye (Ad5 [1]; D 0, before treatment): 1050 pfu/ml and 50 pfu/ml and 1350 pfu/ml and 1200 pfu/ml and 30 pfu/ml and 6300 pfu/ml and 20 pfu/ml and 600 pfu/ml and 750 pfu/ml and 140 pfu/ml
- Ad5 ocular viral titer, individual eye (Ad5 [1]; D 1): 35 pfu/ml and 10 pfu/ml and 550 pfu/ml and 5 pfu/ml and 500 pfu/ml and 60 pfu/ml and 200 pfu/ml and 700 pfu/ml (2×) and 400 pfu/ml
- Ad5 ocular viral titer, individual eye (Ad5 [1]; D 3): 1500 pfu/ml and 5 pfu/ml and 2900 pfu/ml (2×) and 105 pfu/ml and 2600 pfu/ml and 1350 pfu/ml and 1600 pfu/ml and 4500 pfu/ml and 3500 pfu/ml
- Ad5 ocular viral titer, individual eye (Ad5 [1]; D 4): 0 pfu/ml (2×) and 5 pfu/ml and 750 pfu/ml and 1100 pfu/ml and 400 pfu/ml and 1150 pfu/ml and 7100 pfu/ml and 2000 pfu/ml and 1900 pfu/ml
- Ad5 ocular viral titer, individual eye (Ad5 [1]; D 5): 15 pfu/ml and 0 pfu/ml (2×) and 750 pfu/ml and 5 pfu/ml and 1400 pfu/ml and 700 pfu/ml and 600 pfu/ml and 850 pfu/ml and 950 pfu/ml
- Ad5 ocular viral titer, individual eye (Ad5 [1]; D 7): 0 pfu/ml (6×) and 25 pfu/ml and 5 pfu/ml (2×) and 10 pfu/ml
- Ad5 ocular viral titer, individual eye (Ad5 [1]; D 9): 0 pfu/ml
- Ad5 ocular viral titer, individual eye (Ad5 [1]; D 11): 0 pfu/ml
- Ad5 ocular viral titer, individual eye (Ad5 [1]; D 14): 0 pfu/ml
- Positive Cultures per Total (Ad5 [1]; Day 0, before treatment): 10/10
- Positive Cultures per Total, percent (Ad5 [1]; Day 0, before treatment): 100%
- Positive Cultures per Total (Ad5 [1]; Day 1): 10/10
- Positive Cultures per Total, percent (Ad5 [1]; Day 1): 100%
- Positive Cultures per Total (Ad5 [1]; Day 3): 10/10
- Positive Cultures per Total, percent (Ad5 [1]; Day 3): 100%
- Positive Cultures per Total (Ad5 [1]; Day 4): 8/10
- Positive Cultures per Total, percent (Ad5 [1]; Day 4): 80%
- Positive Cultures per Total (Ad5 [1]; Day 5): 8/10
- Positive Cultures per Total, percent (Ad5 [1]; Day 5): 80%
- Positive Cultures per Total (Ad5 [1]; Day 7): 4/10
- Positive Cultures per Total, percent (Ad5 [1]; Day 7): 40% and 80%
- Positive Cultures per Total (Ad5 [1]; Day 9): 0/10
- Positive Cultures per Total, percent (Ad5 [1]; Day 9): 0%
- Positive Cultures per Total (Ad5 [1]; Day 11): 0/10
- Positive Cultures per Total, percent (Ad5 [1]; Day 11): 0%
- Positive Cultures per Total (Ad5 [1]; Day 14): 0/10
- Positive Cultures per Total, percent (Ad5 [1]; Day 14): 0%
- Positive Cultures per Total, Total (Ad5 [1]; [3]): 36/40
- Positive Cultures per Total, Total (%) (Ad5 [1]; [3]): 90%
- Positive Cultures per Total, Total (Ad5 [1]; Days 1-14): 40/80
- Positive Cultures per Total, Total (%) (Ad5 [1]; Days 1-14): 50%
- Positive Cultures per Total, Total (Ad5 [1]; [4]): 4/40
- Positive Cultures per Total, Total (%) (Ad5 [1]; [4]): 10%
- Mean Combined Ocular Titers Days 1-5, comparison (Ad5 [1]; Early Phase): significantly lower Mean Combined Ocular Titers Days 1-5 compared with the saline Control
- Mean Combined Ocular Titers Days 7-14, comparison (Ad5 [1]; Late Phase): significantly lower Mean Combined Ocular Titers Days 7-14 compared with the saline Control
- Positive Cultures per Total Days 7-14, comparison (Ad5 [1]; Late Phase): significantly fewer Positive Cultures per Total Days 7-14 compared with 10% IG and the saline Control
- Mean Daily Ocular Titers, comparison (Ad5 [1]; days as stated): significantly lower titer on Day 7 compared the saline Control
- Antiviral efficacy, conclusion (Ad5 [1]; rabbit, in vivo): demonstrated its proven antiviral efficacy
- Mean Duration of Shedding, comparison (Ad5 [1]; rabbit, in vivo): significantly shorter mean durations of shedding compared with the saline Control; also recorded: significantly shorter mean duration of shedding compared with 10% IG
- Positive Cultures per Total Days 1-14, comparison (Ad5 [1]; rabbit, in vivo): significantly fewer Positive Cultures per Total Days 1-14 compared with the saline Control
- Daily Ad5 positive cultures per total, comparison (words) (Ad5 [2]): significantly fewer Ad5 positive cultures per total compared with the Saline control on Days 7 and 9
- Daily Ad5 positive cultures per total, comparison (words) (Ad5 [2]; listed as cidofovir): significant decreases in the number of Ad5 positive cultures per total on Days 7 and 9 compared with the saline treated eyes
